Measured values reported in ChEMBL document CHEMBL5113529, “Design, Synthesis, and Biological Evaluation of Dual-Target COX-2/CYP51 Inhibitors for the Treatment of Fungal Infectious Diseases” (J Med Chem, 2022).
≈ marks a conversion by molar mass, not a printed value. Calls of active or inactive are those of the source. The calls are words filed in the database; no cut-off is given here.

Legend:
Pichia kudriavzevii = experiment: Antifungal activity against Candida krusei ATCC 6258 assessed as fungal growth inhibition measured after 72 hrs by double dilution method; type: functional
Candida tropicalis = experiment: Antifungal activity against Candida tropicalis ATCC 1369 assessed as fungal growth inhibition measured after 72 hrs by double dilution method; type: functional
Candida albicans [1] = experiment: Antifungal activity against Candida albicans ATCC SC5314 assessed as fungal growth inhibition measured after 72 hrs by double dilution method; type: functional
Cryptococcus neoformans = experiment: Antifungal activity against Cryptococcus neoformans ZKCC 2209 assessed as fungal growth inhibition measured after 72 hrs by double dilution method; type: functional
Aspergillus fumigatus = experiment: Antifungal activity against Aspergillus fumigatus KM8001 assessed as fungal growth inhibition measured after 72 hrs by double dilution method; type: functional
Candida albicans [2] = experiment: Antifungal activity against Candida albicans ATCC SC5314 assessed as induction of ROS production by measuring fluorescence intensity incubated for 12 hrs by KGT010-1 staining based fluorescence microscopy; type: functional, organism-based

SMILES	MIC50 (Pichia kudriavzevii)	MIC50 (Candida tropicalis)	MIC50 (Candida albicans [1])	MIC50 (Cryptococcus neoformans)	MIC50 (Aspergillus fumigatus)	Activity (Candida albicans [2])
COc1ccc2cc([C@H](C)C(=O)N[C@H](Cn3cncn3)C(=O)OC(C)C)ccc2c1	1 µg/mL (≈ 2.44 µM)	0.5 µg/mL (≈ 1.22 µM)	0.25 µg/mL (≈ 0.609 µM)	0.5 µg/mL (≈ 1.22 µM)	4 µg/mL (≈ 9.74 µM)	–
CC(C)NC(=O)[C@@H](Cn1ccnc1)NC(=O)[C@@H](C)c1ccc(-c2ccccc2)c(F)c1	1 µg/mL (≈ 2.37 µM)	2 µg/mL (≈ 4.73 µM)	0.5 µg/mL (≈ 1.18 µM)	0.5 µg/mL (≈ 1.18 µM)	> 8 µg/mL	–
C[C@H](C(=O)N[C@H](Cn1ccnc1)C(=O)NC1CCCCC1)c1ccc(-c2ccccc2)c(F)c1	2 µg/mL (≈ 4.32 µM)	1 µg/mL (≈ 2.16 µM)	2 µg/mL (≈ 4.32 µM)	4 µg/mL (≈ 8.65 µM)	> 8 µg/mL	–
COC(=O)[C@@H](Cn1cncn1)NC(=O)[C@@H](C)c1ccc(-c2ccccc2)c(F)c1	1 µg/mL (≈ 2.52 µM)	2 µg/mL (≈ 5.05 µM)	0.5 µg/mL (≈ 1.26 µM)	2 µg/mL (≈ 5.05 µM)	4 µg/mL (≈ 10.1 µM)	–
C[C@H](C(=O)N[C@H](Cn1ccnc1)C(=O)NC1CCCCC1)c1cccc(C(=O)c2ccccc2)c1	1 µg/mL (≈ 2.12 µM)	2 µg/mL (≈ 4.23 µM)	1 µg/mL (≈ 2.12 µM)	0.5 µg/mL (≈ 1.06 µM)	> 8 µg/mL	–
COC(=O)[C@@H](Cn1ccnc1)NC(=O)[C@@H](C)c1cccc(C(=O)c2ccccc2)c1	2 µg/mL (≈ 4.93 µM)	0.5 µg/mL (≈ 1.23 µM)	1 µg/mL (≈ 2.47 µM)	1 µg/mL (≈ 2.47 µM)	4 µg/mL (≈ 9.87 µM)	–
C[C@H](C(=O)NC(Cn1ccnc1)C(=O)c1ccccc1)c1cccc(C(=O)c2ccccc2)c1 (stereo partly specified)	0.5 µg/mL (≈ 1.11 µM)	0.5 µg/mL (≈ 1.11 µM)	1 µg/mL (≈ 2.21 µM)	1 µg/mL (≈ 2.21 µM)	4 µg/mL (≈ 8.86 µM)	–

Further lines, with some results ahead:

MIC50 (Pichia kudriavzevii)	MIC50 (Candida tropicalis)	MIC50 (Candida albicans [1])	MIC50 (Cryptococcus neoformans)	MIC50 (Aspergillus fumigatus)	SMILES	Activity (Candida albicans [2])
0.5 µg/mL (≈ 1.11 µM)	0.5 µg/mL (≈ 1.11 µM)	1 µg/mL (≈ 2.23 µM)	1 µg/mL (≈ 2.23 µM)	4 µg/mL (≈ 8.92 µM)	COc1ccc2cc([C@H](C)C(=O)N[C@H](Cn3ccnc3)C(=O)NC3CCCCC3)ccc2c1	Active
0.25 µg/mL (≈ 0.566 µM)	0.5 µg/mL (≈ 1.13 µM)	0.5 µg/mL (≈ 1.13 µM)	0.5 µg/mL (≈ 1.13 µM)	> 8 µg/mL	C[C@H](C(=O)NC(Cn1ccnc1)C(=O)c1ccccc1)c1ccc(-c2ccccc2)c(F)c1 (stereo partly specified)	–
0.25 µg/mL (≈ 0.611 µM)	1 µg/mL (≈ 2.44 µM)	0.5 µg/mL (≈ 1.22 µM)	0.5 µg/mL (≈ 1.22 µM)	4 µg/mL (≈ 9.77 µM)	COc1ccc2cc([C@H](C)C(=O)N[C@H](Cn3ccnc3)C(=O)OC(C)C)ccc2c1	–
0.5 µg/mL (≈ 1.17 µM)	0.5 µg/mL (≈ 1.17 µM)	0.25 µg/mL (≈ 0.585 µM)	0.5 µg/mL (≈ 1.17 µM)	2 µg/mL (≈ 4.68 µM)	COc1ccc2cc([C@H](C)C(=O)NC(Cn3ccnc3)C(=O)c3ccccc3)ccc2c1 (stereo partly specified)	–
0.5 µg/mL (≈ 1.15 µM)	2 µg/mL (≈ 4.61 µM)	1 µg/mL (≈ 2.31 µM)	1 µg/mL (≈ 2.31 µM)	> 8 µg/mL	CC(C)OC(=O)[C@@H](Cn1ccnc1)NC(=O)[C@@H](C)c1cccc(C(=O)c2ccccc2)c1	–
